Measured values reported in patent publication US6737383B1, “Herbicidal oxadiazolidines” (priority 1999, dated 2004).

How the values were obtained:
barnyardgrass = assay: Test A barnyardgrass; type: in vivo, Echinochloa crus-galli; settings: 0 to 10 scale where 0 is no effect and 10 is complete control
Procedure, shortened: (§1)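 Injury scored visually after about eleven greenhouse days against untreated plants, 0 = no effect, 10 = complete control. Compounds, formulated in surfactant-containing non-phytotoxic solvent, were applied as preemergence soil drench to sandy loam plantings and as postemergence runoff spray at the 1–2 leaf stage.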

crabgrass = assay: Test A crabgrass; type: in vivo, Digitaria spp.; settings: 0 to 10 scale where 0 is no effect and 10 is complete control
Procedure, shortened: as §1

morningglory = assay: Test A morningglory; type: in vivo, Ipomoea spp.; settings: 0 to 10 scale where 0 is no effect and 10 is complete control
Procedure, shortened: as §1

common pursiane = assay: Test D common purslane; type: in vivo, Portulaca oleracea; settings: Preemergence, 0 to 100 scale
Source text: (§2) Seeds, tubers, or plant parts of Alexandergrass (Brachiaria plantaginea), bermuda-grass (Cynodon dactylon), common pursiane (Portulaca oleracea), common ragweed (Ambrosia elatior), common groundsel (Senecio vulgaris), dallisgrass (Paspalum dilatatum), goosegrass (Eleusine indica), guineagrass (Panicum maximum), itchgrass (Rottboellia exaltata), Johnson grass (Sorghum halepense), large crabgrass (Digitaria sanguinalis), pitted morningglory (Ipomoea lacunosa), purple nutsedge (Cyperus rotundus), sandbur (Cenchrus echinatus), sourgrass (Trichachne insularis), Spanishneedles (Bidens bipinnata), surinam grass (Brachiaria decumbens) and tall mallow (Malva sylvestris) were planted into greenhouse pots of flats containing greenhouse planting medium. Plant species were grown in separate pots or individual compartments. Preemergence applications were made within one day of planting the seed or plant part.
(§3) Test chemicals were formulated in a non-phytotoxic solvent mixture which included a surfactant and applied preemergence to the surface of the pot containing seeds in a sandy loam soil. Untreated control pots and treated pots were placed in the greenhouse for growth and visually evaluated for injury 14 to 21 days after herbicide application. Plant response ratings, summarized in Table C, are based on a 0 to 100 scale where 0 is no injury and 100 is complete control. A dash (−) response means no test result.

common ragweed = assay: Test D common ragweed; type: in vivo, Ambrosia elatior; settings: Preemergence, 0 to 100 scale
Procedure, shortened: (§4)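 Greenhouse pots, seeds in sandy loam; compounds formulated in non-phytotoxic solvent with surfactant; preemergence treatments went on the soil surface within one day of planting. Injury rated visually 14 to 21 days after application on a 0 (none) to 100 (complete control) scale.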

common groundsel = assay: Test D common groundsel; type: in vivo, Senecio vulgaris; settings: Preemergence, 0 to 100 scale
Source text: as §2, §3

dallisgrass = assay: Test D dallisgrass; type: in vivo, Paspalum dilatatum; settings: Preemergence, 0 to 100 scale
Procedure, shortened: as §4

goosegrass = assay: Test D goosegrass; type: in vivo, Eleusine indica; settings: Preemergence, 0 to 100 scale
Procedure, shortened: as §4

guineagrass = assay: Test D guineagrass; type: in vivo, Panicum maximum; settings: Preemergence, 0 to 100 scale
Procedure, shortened: as §4

itchgrass = assay: Test D itchgrass; type: in vivo, Rottboellia exaltata; settings: Preemergence, 0 to 100 scale
Source text: as §2, §3

large crabgrass = assay: Test D large crabgrass; type: in vivo, Digitaria sanguinalis; settings: Preemergence, 0 to 100 scale
Procedure, shortened: as §4

pitted morningglory = assay: Test D pitted morningglory; type: in vivo, Ipomoea lacunosa; settings: Preemergence, 0 to 100 scale
Source text: as §2
as §3, with “Plant response ratings, summarized in Table C, are based on a 0 to 100 scale where 0 is no injury and 100 is complete control.” left out

purple nutsedge = assay: Test D purple nutsedge; type: in vivo, Cyperus rotundus; settings: Preemergence, 0 to 100 scale
Source text: as §2, §3

Spanishneedles = assay: Test D Spanishneedles; type: in vivo, Bidens bipinnata; settings: Preemergence, 0 to 100 scale
Source text: as §2, §3

surinam grass = assay: Test D surinam grass; type: in vivo, Brachiaria decumbens; settings: Preemergence, 0 to 100 scale
Source text: as §2, §3

tall mallow = assay: Test D tall mallow; type: in vivo, Malva sylvestris; settings: Preemergence, 0 to 100 scale
Source text: as §2, §3

[1] = Rate 32 g/ha, 0 no injury, 100 complete control
[2] = Rate 64 g/ha, 0 no injury, 100 complete control
[3] = Rate 125 g/ha, 0 no injury, 100 complete control

CCN(CC)C(=O)n1oc(=O)n(-c2ccc(F)cc2)c1=O [Compound 3]
6: Plant response rating, Barnyardgrass (barnyardgrass; Postemergence, Rate 1000 g/ha)
0: Plant response rating, Crabgrass (crabgrass; Postemergence, Rate 1000 g/ha) | Plant response rating, Morningglory (morningglory; Postemergence, Rate 1000 g/ha) | Plant response rating, Morningglory (morningglory; Pre-emergence, Rate 2000 g/ha)
3: Plant response rating, Crabgrass (crabgrass; Pre-emergence, Rate 2000 g/ha)
9: Plant response rating, Barnyardgrass (barnyardgrass; Pre-emergence, Rate 2000 g/ha)

Cc1ccc(-n2c(=O)on(C(=O)N(c3ccc(F)cc3F)C(C)C)c2=O)c(C)c1 [Compound 24]
100: Plant response rating, Dallisgrass (dallisgrass; Rate 500 g/ha) | Plant response rating, Goosegrass (goosegrass; Rate 500 g/ha) | Plant response rating, Guineagrass (guineagrass; Rate 500 g/ha) | Plant response rating, Large crabgrass (large crabgrass; [3]) | Plant response rating, Large crabgrass (large crabgrass; Rate 250 g/ha) | Plant response rating, Large crabgrass (large crabgrass; Rate 500 g/ha)
60: Plant response rating, Guineagrass (guineagrass; [1])
75: Plant response rating, Guineagrass (guineagrass; [2])
70: Plant response rating, Large crabgrass (large crabgrass; [1]) | Plant response rating, Large crabgrass (large crabgrass; [2])
90: Plant response rating, Guineagrass (guineagrass; [3])
40: Plant response rating, Itchgrass (itchgrass; [1]) | Plant response rating, Itchgrass (itchgrass; [2]) | Plant response rating, Itchgrass (itchgrass; [3]) | Plant response rating, Itchgrass (itchgrass; Rate 250 g/ha) | Plant response rating, Itchgrass (itchgrass; Rate 500 g/ha)
0: Plant response rating, C. purslane (common pursiane; [1]) | Plant response rating, C. purslane (common pursiane; [2]) | Plant response rating, C. purslane (common pursiane; [3]) | Plant response rating, C. purslane (common pursiane; Rate 250 g/ha) | Plant response rating, C. purslane (common pursiane; Rate 500 g/ha) | Plant response rating, C. ragweed (common ragweed; [1]) | Plant response rating, C. ragweed (common ragweed; [2]) | Plant response rating, C. ragweed (common ragweed; [3]) | Plant response rating, C. ragweed (common ragweed; Rate 250 g/ha) | Plant response rating, C. ragweed (common ragweed; Rate 500 g/ha) | Plant response rating, Com. groundsel (common groundsel; [1]) | Plant response rating, Com. groundsel (common groundsel; [2]) | Plant response rating, Com. groundsel (common groundsel; [3]) | Plant response rating, Com. groundsel (common groundsel; Rate 250 g/ha) | Plant response rating, Com. groundsel (common groundsel; Rate 500 g/ha) | Plant response rating, P. morninglory (pitted morningglory; [1]) | Plant response rating, P. morninglory (pitted morningglory; [2]) | Plant response rating, P. morninglory (pitted morningglory; [3]) | Plant response rating, P. morninglory (pitted morningglory; Rate 250 g/ha) | Plant response rating, P. morninglory (pitted morningglory; Rate 500 g/ha) | Plant response rating, Purple nutsedge (purple nutsedge; [1]) | Purple nutsedge plant response rating (purple nutsedge; [2]) | Purple nutsedge plant response rating (purple nutsedge; [3]) | Plant response rating, Purple nutsedge (purple nutsedge; Rate 250 g/ha) | Plant response rating, Purple nutsedge (purple nutsedge; Rate 500 g/ha) | Plant response rating, Spanishneedles (Spanishneedles; [1]) | Spanishneedles plant response rating (Spanishneedles; [2]) | Spanishneedles plant response rating (Spanishneedles; [3]) | Plant response rating, Spanishneedles (Spanishneedles; Rate 500 g/ha) | Plant response rating, Tall Mallow (tall mallow; [1]) | Tall Mallow plant response rating (tall mallow; [2]) | Tall Mallow plant response rating (tall mallow; [3]) | Plant response rating, Tall Mallow (tall mallow; Rate 250 g/ha) | Plant response rating, Tall Mallow (tall mallow; Rate 500 g/ha)
65: Plant response rating, Surinam grass (surinam grass; Rate 500 g/ha)
30: Plant response rating, Dallisgrass (dallisgrass; [1]) | Plant response rating, Dallisgrass (dallisgrass; [2])
50: Plant response rating, Goosegrass (goosegrass; [1]) | Plant response rating, Goosegrass (goosegrass; [2])
98: Plant response rating, Dallisgrass (dallisgrass; [3]) | Plant response rating, Dallisgrass (dallisgrass; Rate 250 g/ha) | Plant response rating, Goosegrass (goosegrass; [3]) | Plant response rating, Goosegrass (goosegrass; Rate 250 g/ha) | Plant response rating, Guineagrass (guineagrass; Rate 250 g/ha)
10: Plant response rating, Surinam grass (surinam grass; [1]) | Surinam grass plant response rating (surinam grass; [2]) | Surinam grass plant response rating (surinam grass; [3]) | Plant response rating, Surinam grass (surinam grass; Rate 250 g/ha)
